Reference: patent publication US11021472B2, “Use of compounds comprising two or more hydrophobic domains and a hydrophilic domain comprising PEG moieties for stabilization of a cell” (Roche Diagnostics Operations, Inc., priority 2013, dated 2021)
“And” between values parts separate entries of the source, which are not always exact repeats. Equal entries are not always repeated. Where two headings read alike, the source gives them in different places.

Legend:
WBC [1] = assay: WBC recovery rate after centrifugation (stabilization of cells); assay type: cell-based, human; conditions: for performance in WBC recovery rate after centrifugation (ranking): Centrifugation 20 min, 10 min, 1 h; for WBC recovery rate after centrifugation: dependence on molecule concentration: Centrifugation 10 min
Protocol: (§1) Centrifugation characteristics: 10 min, 300×g.
as §1
The respective left, middle and right columns per assay represent different Experimenters 1, 2 and 3. […] Centrifugation characteristics: 10 min, 300×g. Molecule: Cholesteryl-TEG-Cholesteryl-TEG-(SpacerC18)7-Fluos-Biotin-TEG.
(§2) Following molecules were tested: 1234: 5′-(Cholesteryl-TEG)2-Spacer C18-dT-Biotin-TEG-3′; 1248: 3′-(Cholesteryl-TEG)2-PEG2000-Fluos-Biotin-TEG-5′ INVERS; 1254: 3′-(Cholesteryl-TEG)2-SpacerC18-Fluos-Biotin-TEG-5′ INVERS; 1255: 3′-(Myristic acid)2-PEG2000-dT-Biotin-TEG-5′ INVERS. […] Centrifugation characteristics: 20 min, 300×g. Respective left column: 10 min incubation with molecule. Respective middle column: 1 h min incubation with molecule. Respective right column: 2 h incubation with molecule.
Following molecules were tested: 1255: 3′-(Myristic acid)2-PEG2000-dT-Biotin-TEG-5′ INVERS; 1234: 5′-(Cholesteryl-TEG)2-Spacer C18-dT-Biotin-TEG-3′; 1248: 3′-(Cholesteryl-TEG)2-PEG2000-Fluos-Biotin-TEG-5′ INVERS; 1254: 3′-(Cholesteryl-TEG)2-SpacerC18-Fluos-Biotin-TEG-5′ INVERS. […] Centrifugation characteristics: 20 min, 500×g. Respective left column: 10 min incubation with molecule. Respective middle column: 1 h min incubation with molecule. Respective right column: 3 h incubation with molecule.
as §2, with “tested: 1255: 3′-(Myristic acid)2-PEG2000-dT-Biotin-TEG-5′ INVERS;” for “tested:”, “3′-(Cholesteryl-TEG)2-SpacerC18-Fluos-Biotin-TEG-5′” for “3′-(Cholesteryl-TEG)2-SpacerC18-Fluos-Biotin-TEG-5′ INVERS; 1255: 3′-(Myristic acid)2-PEG2000-dT-Biotin-TEG-5′”, “1000×g.” for “300×g.”
Stabilization is typically determined on a population of cells, e.g. 2, 10, 100 or more cells, and the respective mean viability of the cell populations are compared. […] Viability may be determined by determining cell morphology, cell viability and/or cell recovery. Methods for determining cell morphology, cell viability and cell recovery are known in the art. […] For determining cell morphology, visual inspection by microscopy may be performed. For determining cell viability, a cell viability test using WST-1 proliferation kit (RAS) may be performed.

white blood cells (WBCs) = conditions: 300,000 WBCs/well
Protocol: In particular, the performance of a single cholesterol-molecule and different dual-linker molecules (i.e. containing two hydrophobic moieties) was tested. In detail, immobilization of white blood cells (WBCs) on a Streptavidin-coated surface using different linker molecules was tested on a 12-well plate: 300,000 WBCs/well. This was followed by the measurement of the cell recovery rate after immobilization and washing of the cells using the Cellavista instrument (10×Nuclei Operator s9s5).

WBC [2] = system: WBC
Protocol: 4× determination. Row A: 200 μl PBS introduced, 1 nmol of compound added thereto respectively, mixed, incubated about 30 min, washed 2×PBS, 800 μl PBS introduced, 300.000 WBC (untreated) added. Row B: 800 μl PBS introduced, 300.000 WBC (untreated) added. Row C: 10×10^6 WBC in 1 ml with 10 nmol compound of invention 10 min incubated, 800 μl PBS/Well introduced, 300.000 treated WBC respectively. The first MTP plate washed after 30 min 2× with PBS, overlayed with Höchst and incubated for 15 min.>Cellavista (Operator s9s5) measured. The second plate was measured after 90 min. The third plate was measured after 150 min.
The experiments were performed for different incubation times, as shown below:
As starting material 5′-(Cholesteryl-TEG)2-PEG2000-Fluos-Biotin_TEG-3′ INVERS (14530 pmol/μl) (Internal Reference No.: 29.891250), and a streptavidin treated MTP (Microcoat), 12 Well plate were used.
Erythrocyte lysis was performed as follows:
EDTA-whole blood 59.423 6.400 WBC/μl (Ambulanz Roche)
lysis buffer: 100 mM NH4Cl+5 mM Hepes+0.5 mM KHCO3+0.1 mM EDTA-K
Ca 1×8 ml whole blood filled in 50 ml Falcon tube with lysis buffer, incubate at room temperature for 10 min
15 min at 250 g centrifugated, pellet resuspended by pipetting in and out in lysis buffer; filled to 50 ml with lysis buffer
15 min 250 g centrifugated, pellet resuspended with PBS, filled to 50 ml with PBS, 15 min 250 g centrifugated, filled to 50 ml with PBS
The design of the experiment on the plate is explained below (see FIG. 2):
Row A: 200 μl PBS introduced, 1 nmol of compound added thereto respectively, mixed, incubated about 30 min, washed 2× PBS, • 800 μl PBS introduced, 300.000 WBC (untreated) added.
Row B: 800 μl PBS introduced, 300.000 WBC (untreated) added.

Epithelial cells = assay: Labelling (staining) of cells with labelled molecules; assay type: cell-based
Text: (§3) As shown in the examples, a compound for use according to the invention, wherein the compound comprises a label moiety, is contacted with a cell. As labelling is preferably done with viable or potentially viable cells, the cells are typically present in an aqueous solution, which is preferably buffered and/or contains nutrients, e.g. the cells are suspended in PBS. The labeled compound for use according to the invention may be added to the cells, e.g. in form of a solution, e.g. as aqueous solution by methods known in the art, as pipetting.

MDA-MB468 = assay: as above; assay type: cell-based
Text: as §3

U937 = assay: as above; assay type: cell-based
Text: as §3

WBCs [3] = assay: as above; assay type: cell-based
Text: as §3

WBCs [4] = assay: Recovery rate of cells after immobilization on streptavidin (SA) plate; assay type: cell-based; conditions: for Remarks (staining): staining of the cells by the molecule
Protocol: X=hydrophobic moiety, […]=fluorescein In the following experiment, the recovery rate of cells was determined.

[5] = 300×g, 2 h incubation with molecule
[6] = 500×g, 3 h incubation with molecule
[7] = Sample 1, compound concentration: 1 nmol/10e6 WBCs
[8] = Sample 1, first table, concentration not given
[9] = Sample 2, Compound Concentration: 100 pmol/10e6 WBCs
[10] = Sample 2, Compound Concentration: 1 nmol/10e6 WBCs

3′-(Myristic acid)2-PEG2000-dT-Biotin-TEG-5′ INVERS [compound 1255]
performance in WBC recovery rate after centrifugation (ranking) (WBC [1]; [5]): followed by compound 1255 and 1254
performance in WBC recovery rate after centrifugation (ranking) (WBC [1]; [6]): followed by molecule 1255 and 1254

5′-(Cholesterol-TEG)1-Doubler-dT-Biotin-3′ [29.891272]
cell count per well (white blood cells (WBCs); [7]): 199973 and 220701 and 228481
cell count per well (white blood cells (WBCs); [8]): 147132 and 179643 and 181620
Mean (cell count) (white blood cells (WBCs); [9]): 186316.33
cell count per well (white blood cells (WBCs); [9]): 161504 and 201424 and 196021
Mean (cell count) (white blood cells (WBCs); [10]): 247418.33
cell count per well (white blood cells (WBCs); [10]): 241232 and 254894 and 246129

5′-(Cholesteryl-TEG)2-PEG2000-Fluos-Biotin_TEG-3′ INVERS [29.891250]
MW (mean WBC count; target: 300.000 WBC) (WBC [2]; 30 min, WBC treated): 231829.75
WBC recovery rate [%] (Mean %) (WBC [2]; 30 min, WBC treated: molecule + cells): 77.28%
MW (mean WBC count; target: 300.000 WBC) (WBC [2]; 30 min, Well treated): 64909
WBC recovery rate [%] (Mean %) (WBC [2]; 30 min, well treated: molecule bound to surface): 21.64%
MW (mean WBC count; target: 300.000 WBC) (WBC [2]; 90 min, WBC treated): 249346.25
WBC recovery rate [%] (Mean %) (WBC [2]; 90 min, WBC treated: molecule + cells, listed as molecule useful in methods of invention): 83.12% and 83.1%
MW (mean WBC count; target: 300.000 WBC) (WBC [2]; 90 min, Well treated): 142865
WBC recovery rate [%] (Mean %) (WBC [2]; 90 min, well treated: molecule bound to surface, listed as molecule useful in methods of invention): 47.62% and 47.6%
MW (mean WBC count; target: 300.000 WBC) (WBC [2]; 120 min, WBC treated): 258692.75
WBC recovery rate [%] (Mean %) (WBC [2]; 120 min, WBC treated: molecule + cells): 86.23%
MW (mean WBC count; target: 300.000 WBC) (WBC [2]; 120 min, Well treated): 171062.75
WBC recovery rate [%] (Mean %) (WBC [2]; 120 min, well treated: molecule bound to surface): 57.02%

5′-(Cholesteryl-TEG)2-Spacer C12-dT-Biotin_TEG-3′ INVERS [29.891253]
cell count per well (white blood cells (WBCs); [7]): 218861 and 221471 and 208802
cell count per well (white blood cells (WBCs); [8]): 105061 and 128195 and 139678
Mean (cell count) (white blood cells (WBCs); [9]): 187757.67
cell count per well (white blood cells (WBCs); [9]): 178919 and 197130 and 187224
Mean (cell count) (white blood cells (WBCs); [10]): 237052.33
cell count per well (white blood cells (WBCs); [10]): 239105 and 240632 and 231420

5′-(Cholesteryl-TEG)2-Spacer C18-Fluos-Biotin_TEG-3′ INVERS [29.891254]
cell count per well (white blood cells (WBCs); [7]): 244649 and 234262 and 260760
cell count per well (white blood cells (WBCs); [8]): 157660 and 190148 and 170850
Mean (cell count) (white blood cells (WBCs); [9]): 197067.00
cell count per well (white blood cells (WBCs); [9]): 205917 and 185100 and 200184
Mean (cell count) (white blood cells (WBCs); [10]): 245376.00
cell count per well (white blood cells (WBCs); [10]): 247428 and 244396 and 244304
performance in WBC recovery rate after centrifugation (ranking) (WBC [1]; [5]): followed by compound 1255 and 1254
performance in WBC recovery rate after centrifugation (ranking) (WBC [1]; [6]): followed by molecule 1255 and 1254

5′-(Cholesteryl-TEG)2-Spacer C18-dT-Biotin-TEG-3′ [compound 1234]
performance in WBC recovery rate after centrifugation (ranking) (WBC [1]; [5]): best performance
performance in WBC recovery rate after centrifugation (ranking) (WBC [1]; [6]): best performance

5′-Cholesteryl-TEG-PEG2000-Fluos-3′ [BMO 29.891132]
staining of cells by labelled molecule (Epithelial cells): ✓
staining of cells by labelled molecule (MDA-MB468): ✓
staining of cells by labelled molecule (U937): ✓
staining of cells by labelled molecule (WBCs [3]): ✓ not all

5′-CholesterylTEG-CholesterylTEG-(SpacerC18)7-Fluos-BiotinTEG-3′ [BMO 29.891222]
WBC recovery rate after centrifugation: dependence on molecule concentration (WBC [1]; 300×g): the higher the molecule concentration, the higher the cell recovery rate after centrifugation
WBC recovery rate after centrifugation: dependence on molecule concentration (WBC [1]; 300×g, listed as A): The higher the molecule concentration, the higher the cell recovery rate after centrifugation
cell stabilization: dependence on the experimenter (WBC [1]; Experimenters 1, 2 and 3, centrifugation 10 min, 300×g): independent on the experimenter

5′-CholesterylTEG-CholesterylTEG-PEG2000-Fluos-BiotinTEG-3′ [BMO 29.891180]
Remarks (staining) (WBCs [4]): strong

5′-Myristic acid-Myristic acid-(SpacerC18)7-Fluos-BiotinTEG-3′ [BMO 29.891214]
Remarks (staining) (WBCs [4]): strong

5′-Myristic acid-Myristic acid-PEG2000-Fluos-BiotinTEG-3′ [BMO 29.891194]
Remarks (staining) (WBCs [4]): weak and stronger

5′-Myristic acid-Myristic acid-SpacerC18-Fluos-BiotinTEG-3′ [BMO 29.891213]
Remarks (staining) (WBCs [4]): strong

5′-Myristic acid-SpacerC9-Myristic acid-PEG2000-Fluos-BiotinTEG-3′ [BMO 29.891197]
Remarks (staining) (WBCs [4]): weak

5′-alphaTocopherolTEG-PEG2000-Fluos-3′ [BMO 29.891131]
staining of cells by labelled molecule (Epithelial cells): ✓
staining of cells by labelled molecule (MDA-MB468): ✓
staining of cells by labelled molecule (U937): ✓
staining of cells by labelled molecule (WBCs [3]): ✓ not all

CCCCCCCCCCCCCCCCCCCCCCN1/C(=C/C=C/c2oc3ccccc3[n+]2CCC)Oc2ccccc21.[I-] [PKH2]
staining of cells by labelled molecule (Epithelial cells): ✓ not all
staining of cells by labelled molecule (WBCs [3]): ✓

Biotin-PEG-Lys-(C14)2 [15.260268]
Recovery Rate (WBCs [4]; 1.77 nmol/10e6 Cells): 85.72%

Biotin-PEG-Lysin-(C18)2 [HH1749]
WBC recovery rate after centrifugation: dependence on molecule concentration (WBC [1]; 300×g): The higher the concentration of the molecule, the higher the cell recovery rate after centrifugation

Biotin-PEG-Lysin-(C18)2 [HH1750]
WBC recovery rate after centrifugation: dependence on molecule concentration (WBC [1]; 300×g): The higher the concentration of the molecule, the higher the cell recovery rate after centrifugation

Biotin-PEG-Lysin-(C18)2 [HH1755]
WBC recovery rate after centrifugation: dependence on molecule concentration (WBC [1]; 300×g): The higher the concentration of the molecule, the higher the cell recovery rate after centrifugation

Sulfo-JA133-phenylboronic acid [BMO: 15.000078]
staining of cells by labelled molecule (Epithelial cells): ✓
staining of cells by labelled molecule (WBCs [3]): ✓ not all
